Measured values from the NIST ThermoML archive (doi:10.1021/je050402s).

Assay: xn = mol fraction of the nth substance listed
Settings: 100.5 kPa, Liquid

CCOC(=O)c1ccccc1O [ethyl 2-hydroxybenzoate] + CCO
Settings | mass density, 288.15 K [kg/m3] | mass density, 298.15 K [kg/m3] | mass density, 308.15 K [kg/m3] | mass density, 318.15 K [kg/m3] | viscosity, 288.15 K [mPa·s] | viscosity, 298.15 K [mPa·s] | viscosity, 308.15 K [mPa·s] | viscosity, 318.15 K [mPa·s]
x1 = 0.05 | 835.47 | 826.63 | 817.7 | 808.61 | 1.398 | 1.145 | 0.953 | 0.802
x1 = 0.1 | 871.02 | 862 | 852.86 | 843.56 | 1.467 | 1.197 | 0.998 | 0.836
x1 = 0.15 | 901.89 | 892.7 | 883.41 | 873.95 | 1.533 | 1.258 | 1.043 | 0.877
x1 = 0.2 | 928.98 | 919.64 | 910.21 | 900.63 | 1.615 | 1.322 | 1.094 | 0.915
x1 = 0.25 | 952.87 | 943.42 | 933.9 | 924.22 | 1.708 | 1.388 | 1.147 | 0.957
x1 = 0.3 | 974.13 | 964.62 | 955.01 | 945.25 | 1.8 | 1.455 | 1.198 | 0.999
x1 = 0.35 | 993.22 | 983.64 | 973.96 | 964.15 | 1.902 | 1.526 | 1.254 | 1.045
x1 = 0.4 | 1010.45 | 1000.81 | 991.08 | 981.22 | 2.001 | 1.598 | 1.313 | 1.093
x1 = 0.45 | 1026.08 | 1016.38 | 1006.61 | 996.72 | 2.104 | 1.677 | 1.373 | 1.141
x1 = 0.5 | 1040.36 | 1030.63 | 1020.8 | 1010.88 | 2.209 | 1.757 | 1.435 | 1.192
x1 = 0.55 | 1053.4 | 1043.63 | 1033.79 | 1023.85 | 2.317 | 1.838 | 1.498 | 1.242
x1 = 0.6 | 1065.37 | 1055.57 | 1045.7 | 1035.76 | 2.428 | 1.921 | 1.561 | 1.294
x1 = 0.65 | 1076.35 | 1066.53 | 1056.65 | 1046.7 | 2.543 | 2.006 | 1.627 | 1.347
x1 = 0.7 | 1086.51 | 1076.67 | 1066.79 | 1056.85 | 2.664 | 2.096 | 1.695 | 1.403
x1 = 0.75 | 1095.97 | 1086.12 | 1076.24 | 1066.31 | 2.8 | 2.187 | 1.766 | 1.463
x1 = 0.8 | 1104.72 | 1094.88 | 1085.02 | 1075.11 | 2.943 | 2.288 | 1.846 | 1.527
x1 = 0.85 | 1112.93 | 1103.09 | 1093.24 | 1083.37 | 3.1 | 2.398 | 1.932 | 1.596
x1 = 0.9 | 1120.61 | 1110.81 | 1101 | 1091.17 | 3.268 | 2.522 | 2.03 | 1.678
x1 = 0.95 | 1127.85 | 1118.07 | 1108.31 | 1098.55 | 3.503 | 2.706 | 2.163 | 1.781
x1 = 1 | 1134.72 | 1125 | 1115.29 | 1105.6 | 3.694 | 2.831 | 2.253 | 1.842

CC(=O)OCc1ccccc1 [benzyl ethanoate] + CCO
viscosity [mPa·s], Capillary tube (Ostwald / Ubbelohde) method
Settings | 288.15 K | 298.15 K | 308.15 K | 318.15 K
x1 = 0.05 | 1.317 | 1.089 | 0.91 | 0.766
x1 = 0.1 | 1.328 | 1.098 | 0.92 | 0.779
x1 = 0.15 | 1.357 | 1.123 | 0.942 | 0.796
x1 = 0.2 | 1.393 | 1.154 | 0.967 | 0.821
x1 = 0.25 | 1.439 | 1.191 | 0.998 | 0.846
x1 = 0.3 | 1.489 | 1.231 | 1.031 | 0.875
x1 = 0.35 | 1.543 | 1.274 | 1.067 | 0.906
x1 = 0.4 | 1.601 | 1.319 | 1.104 | 0.937
x1 = 0.45 | 1.661 | 1.365 | 1.142 | 0.971
x1 = 0.5 | 1.724 | 1.413 | 1.182 | 1.005
x1 = 0.55 | 1.789 | 1.465 | 1.223 | 1.04
x1 = 0.6 | 1.859 | 1.518 | 1.268 | 1.077
x1 = 0.65 | 1.929 | 1.571 | 1.312 | 1.116
x1 = 0.7 | 2.003 | 1.629 | 1.36 | 1.156
x1 = 0.75 | 2.081 | 1.691 | 1.409 | 1.197
x1 = 0.8 | 2.163 | 1.76 | 1.463 | 1.241
x1 = 0.85 | 2.249 | 1.83 | 1.524 | 1.289
x1 = 0.9 | 2.339 | 1.906 | 1.588 | 1.341
x1 = 0.95 | 2.44 | 1.987 | 1.652 | 1.392
x1 = 1 | 2.53 | 2.056 | 1.703 | 1.432

mass density [kg/m3]
Settings | 288.15 K | 298.15 K | 308.15 K | 318.15 K
x1 = 0.05 | 825.52 | 816.73 | 807.83 | 798.78
x1 = 0.1 | 852.86 | 843.91 | 834.85 | 825.63
x1 = 0.15 | 876.56 | 867.47 | 858.28 | 848.94
x1 = 0.2 | 897.58 | 888.4 | 879.1 | 869.66
x1 = 0.25 | 916.18 | 906.92 | 897.57 | 888.07
x1 = 0.3 | 932.86 | 923.54 | 914.12 | 904.56
x1 = 0.35 | 947.82 | 938.44 | 928.98 | 919.38
x1 = 0.4 | 961.41 | 952 | 942.5 | 932.88
x1 = 0.45 | 973.74 | 964.29 | 954.76 | 945.12
x1 = 0.5 | 984.92 | 975.44 | 965.91 | 956.27
x1 = 0.55 | 995.2 | 985.72 | 976.17 | 966.52
x1 = 0.6 | 1004.68 | 995.21 | 985.66 | 976.03
x1 = 0.65 | 1013.4 | 1003.92 | 994.38 | 984.76
x1 = 0.7 | 1021.55 | 1012.1 | 1002.56 | 992.96
x1 = 0.75 | 1029.05 | 1019.58 | 1010.07 | 1000.51
x1 = 0.8 | 1036.05 | 1026.61 | 1017.13 | 1007.6
x1 = 0.85 | 1042.59 | 1033.16 | 1023.71 | 1014.22
x1 = 0.9 | 1048.78 | 1039.39 | 1029.98 | 1020.53
x1 = 0.95 | 1054.57 | 1045.21 | 1035.84 | 1026.44
x1 = 1 | 1060.11 | 1050.75 | 1041.39 | 1032.03
